According to ChEMBL document CHEMBL1150231, “New sesquiterpene carbonimidic dichlorides and related compounds from the sponge Stylotella aurantium” (J Nat Prod, 2001):

Experiments:
Format in all cases: functional, cell-based
P388 = test: Cytotoxicity against mouse P388 cells
A549 = test: Cytotoxicity against human A549 cells
HT-29 = test: Cytotoxicity against human HT-29 cells
SK-MEL-28 = test: Cytotoxicity against human SK-MEL-28 cells

Measured: IC50

C=C(CC[C@@H]1C(=C)CC[C@H](Cl)C1(C)C)C(Cl)CN=C(Cl)Cl (some centres not stated)
0.1 µg/mL: all assays above

CC1(C)[C@@H](Cl)[C@@H](O)C[C@]2(C)C/C(=C/C=O)CC[C@@H]12
0.1 µg/mL: all assays above

CC1(C)[C@@H](Cl)[C@@H](O)C[C@]2(C)C/C(=C\C=O)CC[C@@H]12
0.1 µg/mL: all assays above
